The species named for this test is Oryctolagus cuniculus. Kind of test: The compound was tested for antagonism of AII-induced contraction of rabbit aorta rings. The test is classed as functional. The settings on record: read-out: pA2 (converted).

With `CCCCc1nc(Cl)c(CO)n1Cc1ccc(-c2ccccc2C(=O)O)cc1`, the Kb is 79.4 nM.
`CCCCc1nc(CO)c(Cl)n1Cc1cc(OC)c(-c2ccccc2C(=O)O)c(OC)c1`: the Kb is 3160 nM.

Values taken from ChEMBL document CHEMBL1125174, “Conformationally restricted polysubstituted biphenyl derivatives with angiotensin II receptors antagonist properties” (J Med Chem, 1991).
